Measurements reported in US11827624B2, “Covalent immune recruiter compounds for immune cell recognition and associated uses” (McMaster University, priority 2020, dated 2023).
Where “and” joins values, the source holds several entries; their conditions need not be identical. Equal entries are not always repeated.

What was measured:
[1] = test system: humanized anti-DNP SPE7 (mmAb); assay: BLI covalent labeling kinetics assay on IgG Fc capture probes, mmAb; assay type: binding
Experimental: (§1) Kinetic assays to characterize the second order rate constant (kinact/KI) describing the CIR+Ab labeling reaction involved incubating increasing concentrations of CIR 3 or CIR 5 with a fixed concentration (75 nM) of anti-DNP mmAb in solution, for different periods of time. PSMA binding to CIR-Ab complexes increases the total mass associated with the probe surface leading to signal increases (nm shift). CIR 3 (500 nM) and 75 nM of either mmAb or mAb (AcroBiosystems Catalog #DNP-M2) was reacted in 1× Kinetics Buffer (ForteBio) for four hours prior to the experiment. IgG Fc capture (ProG) probes from ForteBio were placed in 1× Kinetics Buffer for 20 minutes prior to the experiment for wetting. The experiment was conducted using an Octet Red96 (ForteBio), where the acquisition rate was set to 5 Hz and the temperature was held at 25° C. The plate shaker setting was 1000 RPM. A volume of 250 μL of each solution was loaded onto a black flat-bottom 96-well plate (Grenier). The experiment began by placing the ProG probes in 1×Kinetics Buffer for four minutes to establish a baseline. Next, the probes were placed into the CIR 3 and anti-DNP antibody reaction mixture to load the covalent complex (CIR-Ab) onto the probe. Next, the probes were placed in a solution of 5 mM DNP-glycine competitor in 1×Kinetics Buffer in order to disrupt any non-covalent or non-specific binding. The baseline was re-established by then placing the probes in 1× Kinetics Buffer for 0.5 minutes. To measure PSMA association, the probes were placed in a solution of 500 nM human PSMA protein in 1× Kinetics Buffer for 10 minutes. The probes were then placed in 1×Kinetics Buffer for 10 minutes to measure dissociation. The raw nm shift signal for the association and dissociation step obtained by the Octet Red96 was first baselined to the beginning of the association step (t=0 second) by subtracting the association signal at t=0 from the measured signal at each time point. The Kd was determined by fitting both the association and dissociation curves using the ‘association then dissociation’ binding model in GraphPad Prism 8. The experiment was repeated once for a total of two replicates.
(§2) The specific labelling of an antibody by a CIR occurs via a two-step mechanism. In the first step, the CIR binds to the antibody via its ABD and forms a reversible complex. […] This second order rate constant was determined by monitoring covalent product (CIR-Ab) formation as a function of time via BLI using IgG Fc capture probes (note: a non-specific labeling reaction occurs independent of binding to the DNP binding site with any biological nucleophile and follows second order kinetics without saturation). […]

[2] = test system: monoclonal human anti-DNP antibody (mAb); assay: BLI covalent labeling kinetics assay on IgG Fc capture probes, mAb; assay type: binding
Experimental: as §1, §2

With `O=C(O)CC[C@H](NC(=O)N[C@@H](CCCCNC(=O)NCCOCCOCCOCCOCCOCCOCCOCCOC(=O)n1cnc(CCNC(=O)CNc2ccc([N+](=O)[O-])cc2[N+](=O)[O-])c1)C(=O)O)C(=O)O` [CIR 3] the “covalent reaction selectivity at excess CIR” value ([1]; 20-fold excess (1.5 μM), mAb and mmAb) was “high covalent reaction selectivity for the DNP hapten binding site on both mAb and mmAb was observed”, the “Kinact/Kl ^c” value ([1]; mmAb) was 12000 ± 1000 M⁻¹ s⁻¹ and the “Kinact^c” value ([1]; mmAb, 75 nM antibody) was 4.0 × 10^−4 ± 0 s^−1. For the same compound, the Ki ([1]; mmAb, read-out: Kl ^c) was ~30 nM and 30 nM, the “covalent labeling of anti-DNP mAb” value ([2]; 75 nM mAb, 500 nM CIR 3) was “selectively covalently modify mAb albeit with modestly slower kinetics” and the “Kinact/Kl ^c” value ([2]; mAb) was 1730 ± 1040 M⁻¹ s⁻¹. The “Kinact^c” value ([2]; mAb, 75 nM antibody) was 2.0 × 10^−4 ± 0 s^−1 and the Ki ([2]; mAb, read-out: Kl ^c) was 160 ± 70 nM.
